Counter-ions that a name gives are not always drawn.
biological target: T1, human BRD4 bromodomain II (Homo sapiens, UniProt O60885); assay: Bromodomain binding assay (AlphaScreen), BRD4 BDII; conditions: AlphaScreen assay, Table C2; read-out: BRD4 BDII IC50
T1 construct: human BRD4 bromodomain II [based on Genbank NM_058243, residues 349-460]; host or cells: E. coli
Method: Bromodomain Binding Assay
The bromodomain binding assay utilizes AlphaScreen technology. Compounds compete with a biotinylated peptide ligand (from histone H4: aa 1-21, K5/K8/K12/K16Ac-biotin) for binding to a hexahistidine (His6)-tagged bromodomain. Peptide binding is detected by fluorescence signal after singlet oxygen energy transfer from peptide-bound AlphaScreen streptavidin-coated donor beads to His6-tagged bromodomain-bound nickel-chelate acceptor beads (PerkinElmer). Briefly, 8 μL 2.5× bromodomain (E. coli expressed, N-terminal His6-tagged human BRD4 bromodomain II [based on Genbank NM_058243, residues 349-460] or N-terminal His6-tagged human BRD4 bromodomain I [residues 44-170]) in reaction buffer (50 mM HEPES [pH 7.5], 100 mM NaCl, 0.05% CHAPS, 0.1% BSA, 1% DMSO) is added to wells of an assay plate (384-well low flange white, flat bottom, polystyrene microplate, Corning #3572; buffer only is added to some wells as a negative control). A compound concentration series (10 concentrations, 3-fold serial dilutions previously prepared in 100% DMSO, or 100% DMSO only negative control) is delivered to the assay plate with an Echo 550 acoustic liquid handler (Labcyte), followed by plate centrifugation and incubation for 30 minutes at room temperature. Then 4 μL 5× biotinylated peptide ligand is added, followed by plate centrifugation and gentle shaking for 30 minutes at room temperature to mix. After this incubation, 4 μL 5× donor beads are added, and the plate is centrifuged, followed by brief gentle shaking to mix. Finally, 4 μL 5× acceptor beads are added, and the plate is centrifuged, followed by gentle shaking for 60 minutes at room temperature in the dark. AlphaScreen signal (excitation/emission: 680 nm/520-620 nm) is detected with an EnSpire multimode plate reader (PerkinElmer). Percentage peptide binding is plotted as a function of concentration, and curve fitting is used to determine competitive compound binding ICsos.

SMILES | IC50
CC(=O)Nc1ccc(-c2cccc(-c3cc(N4CCNCC4)no3)c2O)cc1OC1CCC1 [Example 24, N-(3-cyclobutoxy-2′-hydroxy-3′-(3-(piperazin-1-yl)isoxazol-5-yl)-[1,1′-biphenyl]-4-yl)acetamide 2,2,2-trifluoroacetate] | 10 to 100 nM
CC(=O)Nc1ccc(-c2cccc(-c3ccc(NC(C)=O)c(F)c3)c2O)cc1F [Example 33, N,N′-(3,3″-Difluoro-2′-hydroxy-[1,1′:3′,1″-terphenyl]-4,4″-diyl)diacetamide] | > 100 nM
CC(=O)Nc1ccc(-c2cccc(-c3cnn(-c4ccccc4)c3)c2O)cc1F [Example 35, N-(3-Fluoro-2′-hydroxy-3′-(1-phenyl-1H-pyrazol-4-yl)-[1,1′-biphenyl]-4-yl) acetamide] | > 100 nM
CC(=O)Nc1ccc(-c2cccc(-c3ccc(NC(C)=O)nc3)c2O)cn1 [Example 40, N,N′-(5,5′-(2-Hydroxy-1,3-phenylene)bis(pyridine-5,2-diyl))diacetamide] | > 100 nM
COc1cc(-c2cccc(-c3ccc(NC(C)=O)c(F)c3)c2O)ccc1NC(C)=O [Example 42, N,N′-(3-Fluoro-2′-hydroxy-3″-methoxy-[1,1′:3′,1″-terphenyl]-4,4″-diyl)diacetamide] | 10 to 100 nM
CC(=O)Nc1ccc(-c2cccc(-c3ccc(NC(C)=O)c(OC4CCC4)c3)c2O)cc1F [Example 45, N,N′-(3-Cyclobutoxy-3″-fluoro-2′-hydroxy-[1,1′:3′,1″-terphenyl]-4,4″-diyl)diacetamide] | > 100 nM
CC(=O)Nc1ccc(-c2cccc(-c3ccc(NC(C)=O)c(Cl)c3)c2O)cc1F [Example 46, N,N′-(3-Chloro-3″-fluoro-2′-hydroxy-[1,1′:3′,1″-terphenyl]-4,4″-diyl)diacetamide] | > 100 nM
CC(=O)Nc1ccc(-c2cccc(-c3ccc(NC(C)=O)c(C#N)c3)c2O)cc1F [Example 49, N,N′-(3-Cyano-3″-fluoro-2′-hydroxy-[1,1′:3′,1″-terphenyl]-4,4″-diyl)diacetamide] | 10 to 100 nM
CC(=O)Nc1ccc(-c2cccc(-c3ccc(NC(C)=O)c(F)c3)c2O)cc1C [Example 50, N,N′-(3-Fluoro-2′-hydroxy-3″-methyl-[1,1′:3′,1″-terphenyl]-4,4″-diyl)diacetamide] | 10 to 100 nM
CCOc1cc(-c2cccc(-c3ccc(NC(C)=O)c(F)c3)c2O)ccc1NC(C)=O [Example 52, N,N′-(3-Ethoxy-3″-fluoro-2′-hydroxy-[1,1′:3′,1″-terphenyl]-4,4″-diyl)diacetamide] | 10 to 100 nM
CC(=O)Nc1ccc(-c2cccc(-c3ccc(NC(C)=O)c(Oc4ccccc4)c3)c2O)cc1F [Example 53, N,N′-(3-Fluoro-2′-hydroxy-3″-phenoxy-[1,1′:3′,1″-terphenyl]-4,4″-diyl)diacetamide] | > 100 nM
CC(=O)Nc1ccc(-c2cccc(-c3cccc(F)c3)c2O)cc1F [Example 54, N-(3,3″-Difluoro-2′-hydroxy-[1,1′:3′,1″-terphenyl]-4-yl)acetamide] | > 100 nM
CC(=O)Nc1ccc(-c2cccc(-c3cccc(C)c3)c2O)cc1F [Example 55, N-(3-fluoro-2′-hydroxy-3″-methyl-[1,1′:3′,1″-terphenyl]-4-yl)acetamide] | > 100 nM
COc1cccc(-c2cccc(-c3ccc(NC(C)=O)c(F)c3)c2O)c1 [Example 56, N-(3-fluoro-2′-hydroxy-3″-methoxy-[1,1′:3′,1″-terphenyl]-4-yl)acetamide] | > 100 nM

Further lines, results first:

IC50 | SMILES
> 100 nM | CC(=O)Nc1ccc(-c2cccc(-c3cc(N4CCNCC4)no3)c2O)cc1OC(F)(F)F [Example 25, N-(2′-hydroxy-3′-(3-(piperazin-1-yl)isoxazol-5-yl)-3-(trifluoromethoxy)-[1,1′-biphenyl]-4-yl)acetamide]
> 100 nM | CC(=O)Nc1ccc(-c2cccc(-c3cc(N4CCNCC4)no3)c2O)cc1OC(F)F [Example 26, N-(3-(Difluoromethoxy)-2′-hydroxy-3′-(3-(piperazin-1-yl)isoxazol-5-yl)-[1,1′-biphenyl]-4-yl)acetamide 2,2,2-trifluoroacetate]
> 100 nM | CC(=O)Nc1ccc(-c2cccc(-c3cc(N4CCNCC4)no3)c2O)cc1C(C)C [Example 27, N-(2′-Hydroxy-3-isopropyl-3′-(3-(piperazin-1-yl)isoxazol-5-yl)-[1,1′-biphenyl]-4-yl)acetamide 2,2,2-trifluoroacetate]
10 to 100 nM | CC(=O)Nc1ccc(-c2cccc(-c3cc(N4CCNCC4)no3)c2O)cc1OC1CC2(COC2)C1 [Example 28, N-(3-(2-Oxaspiro[3.3]heptan-6-yloxy)-2′-hydroxy-3′-(3-(piperazin-1-yl)isoxazol-5-yl)-[1,1′-biphenyl]-4-yl)acetamide 2,2,2-trifluoroacetate]
> 100 nM | CC(=O)N1CCC(=O)Nc2cc(-c3cccc(-c4cc(N5CCNCC5)no4)c3O)ccc21 [Example 29, 5-Acetyl-8-(2-hydroxy-3-(3-(piperazin-1-yl)isoxazol-5-yl)phenyl)-4,5-dihydro-1H-benzo[b][1,4]diazepin-2(3H)-one 2,2,2-trifluoroacetate]
> 100 nM | CC(=O)Nc1ccc(-c2cccc(-c3cc(N4CCNCC4)no3)c2O)c(F)c1 [Example 30, N-(2-Fluoro-2′-hydroxy-3′-(3-(piperazin-1-yl)isoxazol-5-yl)-[1,1′-biphenyl]-4-yl)acetamide 2,2,2-trifluoroacetate]
> 100 nM | CC(=O)N1CCc2cc(-c3cccc(-c4cc(N5CCNCC5)no4)c3O)ccc21 [Example 31, 1-(5-(2-Hydroxy-3-(3-(piperazin-1-yl)isoxazol-5-yl)phenyl)indolin-1-yl)ethanone 2,2,2-trifluoroacetate]
10 to 100 nM | CC(=O)Nc1ccc(-c2cccc(-c3cc(N4CCNCC4)no3)c2O)cc1Cl [Example 32, N-(3-Chloro-2′-hydroxy-3′-(3-(piperazin-1-yl)isoxazol-5-yl)-[1,1'-biphenyl]-4-yl)acetamide 2,2,2-trifluoroacetate]
10 to 100 nM | CC(=O)Nc1ccc(-c2cccc(-c3cc(N4CCNCC4)no3)c2O)cc1F [Example 34, N-(3-Fluoro-2′-hydroxy-3′-(3-(piperazin-1-yl)isoxazol-5-yl)-[1,1′-biphenyl]-4-yl)acetamide trifluoroacetate]
> 100 nM | CC(=O)N1CCCc2cc(-c3cccc(-c4cc(N5CCNCC5)no4)c3O)ccc21 [Example 36, 1-(6-(2-Hydroxy-3-(3-(piperazin-1-yl)isoxazol-5-yl)phenyl)-3,4-dihydroquinolin-1(2H)-yl)ethanone 2,2,2-trifluoroacetate]
> 100 nM | O=C1OCCN1c1ccc(-c2cccc(-c3cc(N4CCNCC4)no3)c2O)cc1 [Example 37, 3-(2′-Hydroxy-3′-(3-(piperazin-1-yl)isoxazol-5-yl)-[1,1′-biphenyl]-4-yl)oxazolidin-2-one 2,2,2-trifluoroacetate]
> 100 nM | CC(=O)N1CCC(=O)N(C)c2cc(-c3cccc(-c4cc(N5CCNCC5)no4)c3O)ccc21 [Example 38, 5-Acetyl-8-(2-hydroxy-3-(3-(piperazin-1-yl)isoxazol-5-yl)phenyl)-1-methyl-1,3,4,5-tetrahydro-2H-benzo[b][1,4]diazepin-2-one]
> 100 nM | O=C(Nc1ccc(-c2cccc(-c3cc(N4CCNCC4)no3)c2O)cc1)C(F)(F)F [Example 39, 2,2,2-Trifluoro-N-(2′-hydroxy-3′-(3-(piperazin-1-yl)isoxazol-5-yl)-[1,1′-biphenyl]-4-yl)acetamide 2,2,2-trifluoroacetate]
10 to 100 nM | O=C1NCCN1c1ccc(-c2cccc(-c3cc(N4CCNCC4)no3)c2O)cc1 [Example 41, 1-(2′-Hydroxy-3′-(3-(piperazin-1-yl)isoxazol-5-yl)-[1,1′-biphenyl]-4-yl)imidazolidin-2-one 2,2,2-trifluoroacetate]
10 to 100 nM | O=C1CCCN1c1ccc(-c2cccc(-c3cc(N4CCNCC4)no3)c2O)cc1 [Example 43, 1-(2′-Hydroxy-3′-(3-(piperazin-1-yl)isoxazol-5-yl)-[1,1′-biphenyl]-4-yl)pyrrolidin-2-one 2,2,2-trifluoroacetate]
10 to 100 nM | CC(=O)Nc1ccc(-c2cccc(-c3cc(N4CCNCC4)no3)c2O)cc1OC1CC1 [Example 44, N-(3-Cyclopropoxy-2′-hydroxy-3′-(3-(piperazin-1-yl)isoxazol-5-yl)-[1,1′-biphenyl]-4-yl)acetamide 2,2,2-trifluoroacetate]
> 100 nM | CC(=O)Nc1ccc(-c2cccc(-c3ccc4c(c3)CCN4C(C)=O)c2O)cc1F [Example 47, N-(3′-(1-Acetylindolin-5-yl)-3-fluoro-2′-hydroxy-[1,1′-biphenyl]-4-yl)acetamide]
> 100 nM | O=C(Nc1ccc(-c2cccc(-c3cc(N4CCNCC4)no3)c2O)cc1)C(F)F [Example 48, 2,2-Difluoro-N-(2′-hydroxy-3′-(3-(piperazin-1-yl)isoxazol-5-yl)-[1,1′-biphenyl]-4-yl)acetamide 2,2,2-trifluoroacetate]

Source: patent publication US20250179059A1 (The Regents of the University of California, priority 2021, published 2025)
